# Test results reported in BindingDB's records for patent US12552799 (Nxera Pharma, 2026).
# Key:
# Adenosine receptor A1 = biological target: T1, Adenosine receptor A1 (Homo sapiens, UniProt P30542); test: Adenosine Receptor Binding Assay
# T1 sequence (P30542 whole entry): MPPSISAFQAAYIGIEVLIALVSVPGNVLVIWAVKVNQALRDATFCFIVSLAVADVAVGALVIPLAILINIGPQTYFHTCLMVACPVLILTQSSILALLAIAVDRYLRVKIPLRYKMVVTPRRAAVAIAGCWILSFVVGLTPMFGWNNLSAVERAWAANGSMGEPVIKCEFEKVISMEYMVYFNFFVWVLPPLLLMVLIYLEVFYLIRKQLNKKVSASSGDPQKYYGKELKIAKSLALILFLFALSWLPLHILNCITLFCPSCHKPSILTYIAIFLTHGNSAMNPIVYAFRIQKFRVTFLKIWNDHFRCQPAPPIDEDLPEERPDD
# Experimental: (§1) Inhibition binding assays were performed using 0.2 μg of membranes prepared from […] cells infected with BacMam human adenosine A2A receptor or 1.4 μg of membranes […] receptor. Membranes were incubated in 50 mM Tris-HCl (HEK293-hA2A; pH 7.4) or 50 mM Tris-HCl, 100 mM NaCl, 10 mM MgCl2 (CHO-hA1; pH 7.4) in the presence of varying concentrations of test compound and 1 nM [3H]ZM241385 (HEK293-hA2A) or [3H]DPCPX (CHO-hA1) at 25° C. for 1 h. The assay was then terminated by rapid filtration onto GF/B grade Unifilter plates using a TomTec cell harvester, followed by 5×0.5 ml washes with ddH2O. Nonspecific binding was defined in the presence of 1 μM CGS15943 (HEK293-hA2A) or 1 μM DPCPX (CHO-hA1). Bound radioactivity was determined by liquid scintillation counting and inhibition curves were analysed using a four-parameter logistic equation.
# Adenosine receptor A2a = Adenosine receptor A2a (Homo sapiens, UniProt P29274); test: Adenosine Receptor Binding Assay
# Experimental: as §1
# Sequence of Adenosine receptor A2a (P29274 whole entry): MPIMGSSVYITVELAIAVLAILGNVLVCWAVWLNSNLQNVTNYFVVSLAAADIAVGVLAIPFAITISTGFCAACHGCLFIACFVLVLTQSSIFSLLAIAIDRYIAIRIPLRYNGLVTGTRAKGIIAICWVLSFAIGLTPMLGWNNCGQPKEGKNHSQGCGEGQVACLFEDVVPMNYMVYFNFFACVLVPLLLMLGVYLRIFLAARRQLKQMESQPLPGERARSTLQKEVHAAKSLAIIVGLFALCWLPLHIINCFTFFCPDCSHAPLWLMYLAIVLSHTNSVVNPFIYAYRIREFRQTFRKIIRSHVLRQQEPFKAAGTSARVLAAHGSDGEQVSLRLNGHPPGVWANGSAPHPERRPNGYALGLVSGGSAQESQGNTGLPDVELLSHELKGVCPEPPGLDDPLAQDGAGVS
Structure (SMILES),Ki (Adenosine receptor A1) [nM],Ki (Adenosine receptor A2a) [nM]
"Cc1cc(-c2c(-c3ccccc3)nc(N)n3c(=O)n(Cc4ccc(F)cn4)nc23)cc(C)c1O [US12552799, Example 3-1]",100,0.631
"Cc1ocnc1Cn1nc2c(-c3cc(C)c4ncoc4c3)c(-c3ccccc3)nc(N)n2c1=O [US12552799, Example 4-6]",7.94,0.079
"C[C@@H]1CN(c2c(-c3ccccc3)nc(N)n3c(=O)n(C[C@@H]4CCCN4C)nc23)C[C@H](C)O1 [US12552799, Example 1-7]",2000,158
"CCCn1nc2c(N3C[C@@H](C)O[C@@H](C)C3)c(-c3ccccc3)nc(N)n2c1=O [US12552799, Example 1-4]",> 3160,63.1

# Now from value to molecule:
Ki (Adenosine receptor A1) [nM],Ki (Adenosine receptor A2a) [nM],Structure (SMILES)
25.1,0.251,"Cc1cc(-c2c(-c3ccccc3)nc(N)n3c(=O)n(Cc4ccc(F)cn4)nc23)cc2c1N=NC2 [US12552799, Example 4-4]"
> 2000,10,"C[C@@H]1CN(c2c(-c3ccccc3)nc(N)n3c(=O)n(C[C@H]4CCCO4)nc23)C[C@H](C)O1 [US12552799, Example 1-8]"
> 3160,158,"C[C@@H]1CN(c2c(-c3ccccc3)nc(N)n3c(=O)n(CCCF)nc23)C[C@H](C)O1 [US12552799, Example 1-2]"
63.1,0.158,"Cc1cc(-c2c(-c3ccc(F)cc3)nc(N)n3c(=O)n(Cc4ccc(Cl)cn4)nc23)cc2ocnc12 [US12552799, Example 4-2]"
